Data reported in patent publication US20160228403A1, “AGENT FOR PREVENTING OR AMELIORATING RENAL DYSFUNCTION” (TOHOKU UNIVERSITY, priority 2013, published 2016).

Tests used:
[1] = Body weight of chronic renal failure model mice given lubiprostone; type: in vivo; details: adenine-diet mice; lubiprostone 50 or 500 μg/kg orally once daily for 12 days; FIG. 1
Description: (§1) Chronic renal failure model mice to which lubiprostone was administered were prepared according to a method consisting of the following processes to [4]. The body weight of mice was measured on a weekly basis, and blood pressure was measured by a tailcuff method.
(§2) [1] Male C57BL/6 mice (purchased from Clea Japan, Inc.) were fed on an ordinary feed (CE-2 from Clea Japan, Inc.) until 6 weeks of age.
(§3) [2] At 7 weeks of age, the mice were divided into an ordinary fed group fed on the ordinary feed (control) and an adenine-diet fed group fed on an ordinary feed containing 0.2% adenine (from Wako) (adenine-diet).
[3] […]
In the 4 groups (the ordinary fed group, the corn-oil administration group, the lubiprostone 50 administration group, and the lubiprostone 500 administration group), the body weight of mice at 7 weeks of age (immediately after adenine-diet feeding), at 9 weeks of age (at 2 weeks of age after adenine-diet feeding), at 11 weeks of age (at 4 weeks of age after adenine-diet feeding), at 13 weeks of age (immediately after lubiprostone administration), and at cervical dislocation (at 13/7 [≈1.86] weeks after lubiprostone administration) was measured; the results are shown in FIG. 1.

[2] = system: chronic renal failure model mice; assay: BUN and hemoglobin level in blood of chronic renal failure model mice (i-STAT); type: in vivo
Description: The present invention will be more specifically described below with reference to Examples. However, these Examples are not intended to limit the technical scope of the present invention. In Examples, to confirm that the administration of lubiprostone (trade name: Amitiza) could ameliorate renal function, chronic renal failure model mice were prepared by causing mice to eat adenine and analysis was performed using the chronic renal failure model mice. The chronic renal failure model mice are mice in which nephropathy occurs by the crystallization of the eaten adenine in the uriniferous tubule in the form of insoluble 2,8-dihydroxyadenine (Cozzolino, M. et al. Kidney Int. 64, 441-450 (2003) and Tamagaki, K. et al. Nephrol. Dial. Transplant 21, 651-659 (2006)). All experimental animals were operated after approval by the Ethics Committee of Tohoku University School of Medicine.
as §1, §2, §3
[3] […]
Blood was collected according to an established method from the chronic renal failure model mice to which lubiprostone was administered prepared by the method described in Example 1, and the level of BUN in the blood of the mice was measured using i-STAT (from Fuso) (FIG. 2).

[3] = system: chronic renal failure model mice; assay: Histological analysis of renal tissue (PAS, MTS, picrosirius red) of chronic renal failure model mice; type: in vivo
Description: as §1, §2, §3
(§4) [3] The adenine-diet fed group was fed by returning the feed to the ordinary feed after 6 weeks of adenine-diet feeding (at 13 weeks of age) and divided into 3 administration groups (“corn-oil administration group” [vehicle], “lubiprostone 50 administration group” [Lubi50], and “lubiprostone 500 administration group” [Lubi500]; corn oil, 50 μg/kg (mouse body weight) of lubiprostone dissolved in corn oil [Amitiza capsule] [from Abbot Japan Co., Ltd.], and 500 μg/kg (mouse body weight) of lubiprostone dissolved in corn oil [from Abbot Japan Co., Ltd.] were forcibly orally administered using a sound to the “corn-oil administration group”, “lubiprostone 50 administration group”, and “lubiprostone 500 administration group”, respectively once daily for 12 days.
[4] After 24 hours, the mice were subjected to cervical dislocation.
(§5) Renal tissue sections were prepared to perform detailed renal tissue analysis. The renal tissue of the chronic renal failure model mice to which lubiprostone was administered prepared by the method described in Example 1 was fixed in 10% neutral-buffer formalin and embedded in paraffin. The paraffin-embedded renal tissue was sliced and analyzed using 3 histological staining methods (periodic acid-Schiff stain [PAS], Masson's trichrome stain [MTS], and picrosirius red stain) (FIG. 3).

F4/80 = assay: DAB staining of renal failure marker protein F4/80 in renal tissue sections; type: in vivo, mice; details: lubiprostone 50 or 500 μg/kg vs corn oil administration group; FIG. 4 upper
Description: as §4, §5
(§6) F4/80 and αSMA are known as renal failure markers. […]

αSMA = assay: DAB staining of renal failure marker protein αSMA in renal tissue sections; type: in vivo, mice; details: lubiprostone 50 or 500 μg/kg vs corn oil administration group; FIG. 4 lower
Description: as §4, §5, §6

[4] = system: Tnfa, Il6, Pai-1, and Ccl2; assay: Quantitative PCR of nephritis-related marker mRNA in whole kidney; type: in vivo, mice
Description: [3] […]
(§7) In addition, 8 renal failure markers other than F4/80 and αSMA (4 nephritis-related markers [Tnfa, Il6, Pai-1, and Ccl2] and 4 fibrosis-related markers [Col1a1, Col3a1, Tgfb1, and Acta2]) were also analyzed. […] The expression level of mRNA of genes of the 8 renal failure markers (the 4 nephritis-related markers and the 4 fibrosis-related markers) was detected by performing quantitative PCR using Fast start universal probe master (from Roche Co., Ltd.) under the conditions described in the following 1) to 2). […]
(§8) The number of PCR cycles at which each PCR product reaches a certain amount (threshold cycle: Ct value) was measured using Baseline software (from Applied Biosystems Co., Ltd.); the relative Ct value of the cDNA amplification product of the gene of each of the 8 renal failure markers (the 4 nephritis-related markers and the 4 fibrosis-related markers) based on the Ct value of the cDNA amplification product of the GAPDH gene was determined by a comparative Ct method (delta-delta Ct method); and the relative amount of cDNA of the gene of each of the 8 renal failure markers (the 4 nephritis-related markers and the 4 fibrosis-related markers), i.e., the relative amount of mRNA of the gene of each of the 8 renal failure markers (the 4 nephritis-related markers and the 4 fibrosis-related markers), was calculated from the relative Ct value (see the ordinate of FIG. 5).

[5] = system: Col1a1, Col3a1, Tgfb1, and Acta2; assay: Quantitative PCR of fibrosis-related marker mRNA in whole kidney; type: in vivo, mice
Description: [3] […]
as §7, §8

[6] = lubiprostone 500 administration group (500 μg/kg), Dunnett test, FIG. 5

Q: What does the source list for CCCCC(F)(F)C(=O)CC[C@H]1[C@H](O)CC(=O)[C@@H]1CCCCCCC(=O)O [lubiprostone, (−)-7-[(2R,4aR,5R,7aR)-2-(1,1-difluoropentyl)-2-hydroxy-6-oxooctahydrocyclopenta[b]pyran-5-yl]heptanoic acid]?
A: recovery of body weight after return to ordinary feed [1]: did not affect the recovery of body weight; level of hemoglobin (Hb) in the blood ([2]; chronic renal failure model mice given lubiprostone): did not change; increase in the blood BUN level ([2]; lubiprostone 50 or 500 μg/kg orally once daily for 12 days vs corn oil administration group, FIG. 2): suppressed in a manner dependent on the dose of lubiprostone; blood BUN level, statistical difference to the corn oil administration group ([2]; lubiprostone 500 administration group (500 μg/kg), Dunnett test p<0.05, FIG. 2): a significant difference was noted; fibrosis of the kidney, collagen fiber staining by picrosirius red stain, renal tissue sections ([3]; lubiprostone 50 or 500 μg/kg vs corn oil administration group, FIG. 3 panel A bottom): the fibrosis of the kidney was suppressed; fibrosis of the kidney, collagen fiber staining by MTS method, renal tissue sections ([3]; lubiprostone 50 or 500 μg/kg vs corn oil administration group, FIG. 3 panel A middle): the fibrosis of the kidney was suppressed; uriniferous tubule, PAS stain of renal tissue sections ([3]; lubiprostone 50 or 500 μg/kg vs corn oil administration group, FIG. 3 panel A top): recovery of the uriniferous tubule was noted; fibrosis of the kidney, collagen fiber staining by MTS method, whole kidney ([3]; lubiprostone 50 or 500 μg/kg vs corn oil administration group, FIG. 3 panel B top): the fibrosis of the kidney was suppressed; decrease of the renal uriniferous tubule (tubules area, MTS method, whole kidney) ([3]; lubiprostone 50 or 500 μg/kg vs corn oil administration group, FIG. 3 panels B bottom and C): suppressed in a manner dependent on the dose of lubiprostone; proportion of the renal uriniferous tubule in the whole kidney, statistical difference to the corn oil administration group ([3]; lubiprostone 500 administration group (500 μg/kg), Dunnett test p<0.01, FIG. 3 panel C): a significant difference was noted; increase in the expression of renal failure marker F4/80 protein (F4/80): suppressed; increase in the expression of renal failure marker αSMA protein (αSMA): suppressed; mRNA of 3 nephritis-related markers (excluding Il6), statistical difference to the corn oil administration group [4, 6]: a significant difference was noted; expression level of mRNA of the 4 nephritis-related markers (Tnfa, Il6, Pai-1, Ccl2) ([4]; relative to GAPDH, lubiprostone 50 or 500 μg/kg vs corn oil administration group, FIG. 5 panel A): decreased the expression level of mRNA; mRNA of the 4 fibrosis-related markers, statistical difference to the corn oil administration group [5, 6]: a significant difference was noted; expression level of mRNA of the 4 fibrosis-related markers (Col1a1, Col3a1, Tgfb1, Acta2) ([5]; relative to GAPDH, lubiprostone 50 or 500 μg/kg vs corn oil administration group, FIG. 5 panel B): decreased the expression level of mRNA
